{
  "source": "patent US20160175293A1",
  "about": "“PIM KINASE INHIBITOR COMBINATIONS” (priority 2013, published 2016)",
  "key": {"KMS-12-BM": {"system": "KMS-12-BM", "experiment": "mouse xenograft model KMS-12-BM", "format": "in vivo", "conditions": "single agent Compound B"}, "MOLM-13": {"system": "MOLM-13", "experiment": "Cell Titer Glo viability, dose matrix, Chalice analysis", "format": "cell-based", "protocol": "(§1) Compound stock was freshly prepared in the appropriate culture medium and manually added to the plates by electronic multichannel pipette in three replicates. […] The viability of cells was assessed after 72 hours of treatment by quantification of cellular ATP levels via Cell Titer Glo (Promega #G7571) according to the manufacturer's protocol. Plates were read on a luminescence plate reader (Victor X4, Perkin Elmer).\n(§2) Each compound is diluted threefold times and the dashes below represent the threefold dilution between each number."}, "MV-4-11": {"system": "MV-4-11", "experiment": "Cell Titer Glo viability, dose matrix, Chalice analysis", "format": "cell-based", "protocol": "as §1, §2"}},
  "data": [
    {"smiles": "C[C@@H]1C[C@H](N)C[C@H](c2ccncc2NC(=O)c2ccc(F)c(-c3c(F)cccc3F)n2)C1", "note": "[Compound A, N-(4-((1R,3S,5S)-3-amino-5-methylcyclohexyl)pyridin-3-yl)-6-(2,6-difluorophenyl)-5-fluoropicolinamide]", "values": [
      {"measurement": "PK exposure at steady state", "setting": "Day 14 (steady state), 200 mg to 350 mg dose", "result": "plateau"},
      {"measurement": "PK exposure (Cmax AUC) dose proportionality", "setting": "dose range of 70 mg-250 mg, Day 1", "result": "over proportional"},
      {"measurement": "increase of exposure at 500 mg compared to 200 mg to 350 mg dose", "setting": "steady state", "result": "about 2 fold"}
    ]},
    {"smiles": "Cc1nc(NC(=O)N2CCC[C@H]2C(N)=O)sc1-c1ccnc(C(C)(C)C(F)(F)F)c1", "note": "[Compound B, (S)-pyrrolidine-1,2-dicarboxylic acid 2-amide 1-({4-methyl-5-[2-(2,2,2-trifluoro-1,1-dimethyl-ethyl)-pyridin-4-yl]-thiazol-2-yl}-amide)]", "values": [
      {"measurement": "anti-tumor activity", "setting": "KMS-12-BM", "result": "did not demonstrate in anti-tumor activity"}
    ]},
    {"smiles": "CO[C@@H]1[C@H](N(C)C(=O)c2ccccc2)C[C@H]2O[C@]1(C)n1c3ccccc3c3c4c(c5c6ccccc6n2c5c31)C(=O)NC4", "note": "[PKC412, midostaurin]", "values": [
      {"measurement": "single agent activity", "setting": "MOLM-13", "result": "active"},
      {"measurement": "single agent activity", "setting": "MV-4-11", "result": "active"}
    ]}
  ]
}
